Measurements published in patent publication US11357779B2 (G1 Therapeutics, Inc., priority 2018, dated 2022).
Where two headings read alike, the source gives them in different places.

Experiment: Plasma concentration versus time of Compound I and metabolite Compound III in patients dosed QD or BID with Form B of Compound II plus fulvestrant
Format: in vivo, human
Settings: human, plasma, oral, read-out: Compound I Concentration
From the text: Patients were enrolled into 1 of 2 parallel, independently operating, dose-escalation dosing cohorts with Form B of Compound II administered continuously either once daily (QD) or twice daily (BID) with food with fixed-dose fulvestrant (intramuscularly every 14 days for the first three injections and then every 28 days). Pre- or perimenopausal patients also received goserelin for the duration of study treatment. A […] agonist was started at least 28 days before the first dose of Form B, and those patients who were taking another LHRH agonist were switched to goserelin on Day 1. Patients were split into […] cohorts providing once a day (QD) dosing of 200 mg, 300 mg, 400 mg, 500 mg, or 650 mg of Form B, or twice a day (BID) dosing of 100 mg, 150 mg, or 200 mg of Form B. The second dose in BID cohorts was not administered in the evening until at least 12 hours after the initial morning dose of Form B. The dosing cohorts for Form B of Compound II are provided in Table 1.
Blood samples were collected at the following time points relative to the morning dose of Form B at Day 1 and at Day 29: pre-dose (0 hour) and 1, 2, 3, 4, 6, 8, 10, 12 (prior to the evening dose in the BID cohorts), and 24 (prior to the next day's morning dose) hours after dosing. A 5-minute time window was allowed for samples collected between the predose and 3 hours after Form B dosing. A 15-minute window was allowed for samples collected between 4 to 12 hours after Form B dosing. A 1-hour window was allowed for the sample collected 24 hours after Form B dosing. Blood samples for Compound I PK trough levels were collected pre-dose at Day 8, Day 15, and Day 22 prior to the morning administration of Compound I. Plasma concentrations of Compound I and its metabolite, Compound III, were measured using validated methods.
Analysis of plasma concentration versus time data for calculation of standard pharmacokinetic (PK) parameters following oral administration was conducted using Phoenix WinNonlin version 6.3 using actual blood sampling times.

`CC(C)N1CCN(c2ccc(Nc3ncc4cc5n(c4n3)C3(CCCCC3)CNC5=O)nc2)CC1` [Compound I, 2′-((5-(4-isopropylpiperazin-1-yl)pyridin-2-yl)amino)-7′,8′-dihydro-6′H-spiro[cyclohexane-1,9′-pyrazino[1′,2′:1,5]pyrrolo[2,3-d]pyrimidin]-6′-one] gave a concentration at 1 h (300 mg, 300 mg QD of Form B, Day 29, 1.0 h, Median) of 15.4 ng/mL, a concentration at 2 h (300 mg, 300 mg QD of Form B, Day 29, 2.0 h, Mean) of 22.6 ng/mL and a concentration at 2 h (300 mg, 300 mg QD of Form B, Day 29, 2.0 h, Median) of 19.5 ng/mL. It also gave a concentration at 3 h (300 mg, 300 mg QD of Form B, Day 29, 3.0 h, Mean) of 31 ng/mL, a concentration at 3 h (300 mg, 300 mg QD of Form B, Day 29, 3.0 h, Median) of 26.3 ng/mL and a concentration at 4 h (300 mg, 300 mg QD of Form B, Day 29, 4.0 h, Mean) of 44.9 ng/mL. It also gave a concentration at 4 h (300 mg, 300 mg QD of Form B, Day 29, 4.0 h, Median) of 34.2 ng/mL, a concentration at 6 h (300 mg, 300 mg QD of Form B, Day 29, 6.0 h, Mean) of 35.9 ng/mL and a concentration at 6 h (300 mg, 300 mg QD of Form B, Day 29, 6.0 h, Median) of 39.2 ng/mL. For the same compound, the concentration at 8 h (300 mg, 300 mg QD of Form B, Day 29, 8.0 h, Mean) was 31.5 ng/mL, the concentration at 8 h (300 mg, 300 mg QD of Form B, Day 29, 8.0 h, Median) was 33.3 ng/mL and the concentration at 10 h (300 mg, 300 mg QD of Form B, Day 29, 10.0 h, Mean) was 25.6 ng/mL. The concentration at 10 h (300 mg, 300 mg QD of Form B, Day 29, 10.0 h, Median) was 18.9 ng/mL, the concentration at 12 h (300 mg, 300 mg QD of Form B, Day 29, 12.0 h, Mean) was 26.4 ng/mL and the concentration at 12 h (300 mg, 300 mg QD of Form B, Day 29, 12.0 h, Median) was 20.5 ng/mL. For the same compound, the concentration at 24 h (300 mg, 300 mg QD of Form B, Day 29, […], Mean) was 14.4 ng/mL, the concentration at 24 h (300 mg, 300 mg QD of Form B, Day 29, […], Median) was 10.9 ng/mL and the concentration at 0 h (400 mg, 400 mg QD of Form B, Day 1, 0.0 h, Mean) was 0 ng/mL. For the same compound, the concentration at 0 h (400 mg, 400 mg QD of Form B, Day 1, 0.0 h, Median) was 0 ng/mL, the concentration at 1 h (400 mg, 400 mg QD of Form B, Day 1, 1.0 h, Mean) was 5.32 ng/mL and the concentration at 1 h (400 mg, 400 mg QD of Form B, Day 1, 1.0 h, Median) was 2.26 ng/mL. The concentration at 2 h (400 mg, 400 mg QD of Form B, Day 1, 2.0 h, Mean) was 5.67 ng/mL, the concentration at 2 h (400 mg, 400 mg QD of Form B, Day 1, 2.0 h, Median) was 4.83 ng/mL and the concentration at 3 h (400 mg, 400 mg QD of Form B, Day 1, 3.0 h, Mean) was 9.21 ng/mL. The concentration at 3 h (400 mg, 400 mg QD of Form B, Day 1, 3.0 h, Median) was 9.38 ng/mL, the concentration at 4 h (400 mg, 400 mg QD of Form B, Day 1, 4.0 h, Mean) was 14 ng/mL and the concentration at 4 h (400 mg, 400 mg QD of Form B, Day 1, 4.0 h, Median) was 13.1 ng/mL. For the same compound, the concentration at 6 h (400 mg, 400 mg QD of Form B, Day 1, 6.0 h, Mean) was 20.1 ng/mL, the concentration at 6 h (400 mg, 400 mg QD of Form B, Day 1, 6.0 h, Median) was 21.6 ng/mL and the concentration at 8 h (400 mg, 400 mg QD of Form B, Day 1, 8.0 h, Mean) was 15.5 ng/mL. The concentration at 8 h (400 mg, 400 mg QD of Form B, Day 1, 8.0 h, Median) was 16 ng/mL, the concentration at 10 h (400 mg, 400 mg QD of Form B, Day 1, 10.0 h, Mean) was 10.6 ng/mL and the concentration at 10 h (400 mg, 400 mg QD of Form B, Day 1, 10.0 h, Median) was 9.56 ng/mL. For the same compound, the concentration at 12 h (400 mg, 400 mg QD of Form B, Day 1, 12.0 h, Mean) was 7.69 ng/mL, the concentration at 12 h (400 mg, 400 mg QD of Form B, Day 1, 12.0 h, Median) was 8.13 ng/mL and the concentration at 24 h (400 mg, 400 mg QD of Form B, Day 1, […], Mean) was 3.27 ng/mL. For the same compound, the concentration at 24 h (400 mg, 400 mg QD of Form B, Day 1, […], Median) was 3.31 ng/mL, the concentration at 0 h (400 mg, 400 mg QD of Form B, Day 29, 0.0 h, Mean) was 6.8 ng/mL and the concentration at 0 h (400 mg, 400 mg QD of Form B, Day 29, 0.0 h, Median) was 7.52 ng/mL. For the same compound, the concentration at 1 h (400 mg, 400 mg QD of Form B, Day 29, 1.0 h, Mean) was 8.07 ng/mL, the concentration at 1 h (400 mg, 400 mg QD of Form B, Day 29, 1.0 h, Median) was 9.88 ng/mL and the concentration at 2 h (400 mg, 400 mg QD of Form B, Day 29, 2.0 h, Mean) was 11.1 ng/mL. It also gave a concentration at 2 h (400 mg, 400 mg QD of Form B, Day 29, 2.0 h, Median) of 13.4 ng/mL, a concentration at 3 h (400 mg, 400 mg QD of Form B, Day 29, 3.0 h, Mean) of 14.2 ng/mL and a concentration at 3 h (400 mg, 400 mg QD of Form B, Day 29, 3.0 h, Median) of 17.2 ng/mL. The concentration at 4 h (400 mg, 400 mg QD of Form B, Day 29, 4.0 h, Mean) was 17 ng/mL, the concentration at 4 h (400 mg, 400 mg QD of Form B, Day 29, 4.0 h, Median) was 21.2 ng/mL and the concentration at 6 h (400 mg, 400 mg QD of Form B, Day 29, 6.0 h, Mean) was 18.9 ng/mL. The concentration at 6 h (400 mg, 400 mg QD of Form B, Day 29, 6.0 h, Median) was 23.2 ng/mL, the concentration at 8 h (400 mg, 400 mg QD of Form B, Day 29, 8.0 h, Mean) was 17 ng/mL and the concentration at 8 h (400 mg, 400 mg QD of Form B, Day 29, 8.0 h, Median) was 20.5 ng/mL. For the same compound, the concentration at 10 h (400 mg, 400 mg QD of Form B, Day 29, 10.0 h, Mean) was 14.2 ng/mL, the concentration at 10 h (400 mg, 400 mg QD of Form B, Day 29, 10.0 h, Median) was 17.1 ng/mL and the concentration at 12 h (400 mg, 400 mg QD of Form B, Day 29, 12.0 h, Mean) was 11.8 ng/mL. For the same compound, the concentration at 12 h (400 mg, 400 mg QD of Form B, Day 29, 12.0 h, Median) was 13.5 ng/mL, the concentration at 24 h (400 mg, 400 mg QD of Form B, Day 29, […], Mean) was 6.26 ng/mL and the concentration at 24 h (400 mg, 400 mg QD of Form B, Day 29, […], Median) was 7.04 ng/mL. It also gave a concentration at 0 h (500 mg, 500 mg QD of Form B, Day 1, 0.0 h, Mean) of 0 ng/mL.
